Results on 27 molecules are retold here after patent US5888763A, “Peptides specific for the first Crk-SH3 domain” (The Rockefeller University, priority 1994, dated 1999).

Where two headings read alike, the source gives them in different places. Where a SMILES comes first, the peptide text is derived from it. Where no end group is shown, it is not given here.

One assay has as its target T1, v-Crk (Avian sarcoma virus CT10, UniProt P05433).
T1 construct: made in house; host or cells: bacteria
The experiment in a line: Tryptophan fluorescence titration of peptides with gst-v-Crk. The format is binding. The following applies: Table 3; fluorescence measurements. From the text:
(§1) Fluorescence Measurements. The fluorescence measurements were based predominantly on the interactions of the peptides with the aromatic residues, predominantly Trp (Yu et al., 1994, Cell 76:933) in the CrkSH3 domain.
(§2) Measurements were made with a Perkin-Elmer 760-40 fluorescence spectrophotometer at a excitation wavelength of 290 nm (slitwidth 2 nm) and an emission wavelength of 345 nm (slitwidth 17 nm). A mini-magnetic stirrer, CUV-O-STIR model 333 (HELLMA, Long Island, N.Y.) was used to mix the solution in a 1 cm square quartz fluorescence cell. A circulating water bath was used to maintain the sample temperature at 18° C. To obtain the titration curves for calculations of the binding constants, peptides from a stock solution of 5 mg/ml in TBS, 0.05% Tween-20 were added in small increments to a 1 ml volume of 0.5 μM SH3 domain in PBS, 1 mM Dithiothreitol (DTT).
(§3) Calculation of the binding constant. Since the concentration of the SH3-domain containing protein was low, the experimental data were fitted to the following equation:
(§4) F=Fmax *[peptide]/(Kd +[peptide]) (1)
(§5) Non-linear regression curve fitting using SigmaPlot (Jandel Scientific, San Rafael, Calif.) was carried out to fit the experimental data to equation (1) with Fmax and Kd as fitted parameters.

For the next assay, the target named is T2, c-CrkSH3(1) (Mus musculus, UniProt Q64010).
T2 construct: made in house; host or cells: bacteria
The experiment in a line: Tryptophan fluorescence titration of peptides with gst-c-CrkSH3(1). The format is binding, murine. Particulars: fluorescence measurements.
From the text: as §1, §2, §3, §4, §5

For another assay, the target named is T3, Grb2 SH3 domain (Homo sapiens, UniProt P62993).
T3 construct: made in house; host or cells: bacteria
The experiment in a line: Tryptophan fluorescence titration of peptides with gst-Grb2. The format is binding.

For the next assay, the target named is T4, CRKL (Homo sapiens, UniProt P46109).
T4 construct: made in house; host or cells: bacteria
In words: Tryptophan fluorescence titration of peptides with gst-CRKL. The format is binding. The following applies: Table 3; fluorescence measurements.
From the text: as §1, §2, §3, §4, §5

A further assay addresses gst-CrkSH3SH3. In words: ELISA: biotinylated gst-CB fusion proteins binding to immobilized gst-CrkSH3SH3. Particulars: wells coated with 100 ng/well gst-CrkSH3SH3, biotinylated gst-CB fusion protein, read-out: apparent Kd (half saturation point). Here is the method:
ELISA. gst-CB-1 to -4 proteins were biotinylated with Sulfosuccinimidyl 6-(biotinamido) hexanoate (Pierce) according to the manufacturers instructions. ELISA plates (Nunc) were coated with 100 ng/well of gst-Grb2, gst-CrkSH3SH3 or gst in 0.1M NaHCO3, pH 9.6, over night at room temperature (Jones et al., 1991, Mol. Cell Biol. 11:2641). Wells were then blocked with 2% BSA. After washing three times with blocking buffer (20 mM Tris-HCl, pH 7.5, 100 mM NaCl, 0.05% Tween-20, 1 mM EDTA, 0.2% BSA and 0.1% Ovalbumin), biotinylated gst-CB fusion proteins were added at the concentrations indicated in FIG. 6. To measure bound gst-CB fusion proteins, wells were incubated with horseradish Peroxidase coupled streptavidin (Gibco). A chromogenic substrate, 2,2'-azinobis(3-ethylbenzothiazoline-6-sulfonic acid) diaminonium salt (ABTS, Pierce) was then added and the OD was measured at 405 nm after 5 and 15 min and the 5 min OD value subtracted from the 15 min OD value to yield DOD405. In each experiment, the DOD405 at saturation of SH3 domain binding sites was considered 100% . DOD405 values for all other points within the same experiment were expressed as a percentage of this 100% value. Binding to gst alone was subtracted at each data point.

In assay [1] the target is T5, gst-c-CrkSH3(1) (Example 2) (murine, UniProt Q64010). The experiment in a line: tryptophan fluorescence titration.
The target in assay [2] is T5, gst-c-CrkSH3(1) (Example 2). In words: tryptophan fluorescence titration. This is another data set of the same source.
Assay [3] has the same target. In words: tryptophan fluorescence titration with gst-CrkSH3(1).
Assay [4] shares this target. In words: tryptophan fluorescence titration. This is another data set of the same source.
Another assay concerns the target gst-v-Crk (Avian sarcoma virus CT10 (Avian sarcoma …, UniProt P05433)). The experiment in a line: tryptophan fluorescence titration.
The target in assay [5] is T5, gst-c-CrkSH3(1) (Example 2). In words: filter binding of 35S-gst-CrkSH3(1) to blotted gst-fusion peptides.
Assay [6] has the same target. In words: rounded value given in the summary of Example 3 for the peptide and Crk SH3-N; measured by fluorescence in Example 2.
Where [7] appears, read: c-CrkSH3(1) Kd (μM), Table 2, gst-CrkSH3(1), 18° C.
The mark [8] stands for this setting: Table 2, gst-Grb2, fluorescence measurements, 18° C, read-out: Grb2SHD Kd.

T3 sequence (P62993 whole entry, the tested form may be a part): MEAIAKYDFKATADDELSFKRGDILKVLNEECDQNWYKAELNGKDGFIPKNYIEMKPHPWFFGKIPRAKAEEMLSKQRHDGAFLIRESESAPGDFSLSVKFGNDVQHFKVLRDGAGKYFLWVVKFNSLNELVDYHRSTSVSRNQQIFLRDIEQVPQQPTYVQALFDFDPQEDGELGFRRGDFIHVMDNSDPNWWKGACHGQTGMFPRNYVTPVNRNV
T4 sequence (P46109 whole entry, species assumed): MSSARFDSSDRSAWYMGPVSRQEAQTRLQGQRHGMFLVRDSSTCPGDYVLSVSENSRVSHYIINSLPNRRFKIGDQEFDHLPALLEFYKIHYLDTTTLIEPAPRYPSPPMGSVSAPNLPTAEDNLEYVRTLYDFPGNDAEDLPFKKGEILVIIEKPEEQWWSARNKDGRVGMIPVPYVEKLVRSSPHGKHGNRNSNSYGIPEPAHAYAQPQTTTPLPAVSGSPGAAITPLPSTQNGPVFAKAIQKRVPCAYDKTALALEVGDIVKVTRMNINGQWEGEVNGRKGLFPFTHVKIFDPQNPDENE
gst-CrkSH3SH3, sequence (Q64010 132-296 limits assumed): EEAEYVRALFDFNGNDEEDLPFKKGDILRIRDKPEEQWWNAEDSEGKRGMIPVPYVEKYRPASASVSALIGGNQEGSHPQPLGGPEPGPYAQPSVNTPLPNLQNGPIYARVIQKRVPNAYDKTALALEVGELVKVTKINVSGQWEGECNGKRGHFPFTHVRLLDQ
T1 sequence (P05433 whole entry): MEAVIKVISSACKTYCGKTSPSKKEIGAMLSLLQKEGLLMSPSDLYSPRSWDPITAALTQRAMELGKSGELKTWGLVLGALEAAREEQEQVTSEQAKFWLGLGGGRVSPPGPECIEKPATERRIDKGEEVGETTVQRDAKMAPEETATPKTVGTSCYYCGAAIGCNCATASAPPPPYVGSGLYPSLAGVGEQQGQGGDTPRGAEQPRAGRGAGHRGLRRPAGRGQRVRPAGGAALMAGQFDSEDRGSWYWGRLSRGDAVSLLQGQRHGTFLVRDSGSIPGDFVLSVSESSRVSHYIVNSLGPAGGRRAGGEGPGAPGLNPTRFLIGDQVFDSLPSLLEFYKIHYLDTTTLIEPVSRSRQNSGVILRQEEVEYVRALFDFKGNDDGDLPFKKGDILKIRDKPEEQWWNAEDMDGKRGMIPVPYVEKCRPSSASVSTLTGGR

Regarding `CC(C)C[C@H](NC(=O)[C@H](C)NC(=O)[C@@H]1CCCN1C(=O)[C@@H]1CCCN1C(=O)[C@@H]1CCCN1)C(=O)N1CCC[C@H]1C(=O)N1CCC[C@H]1C(=O)N[C@@H](C)C(=O)N[C@@H](CCCCN)C(=O)N[C@@H](CCCNC(=N)N)C(=O)O` (H-PPPALPPAKR-OH), at v-Crk, the Kd turned out to be 248 ± 10 µM.

Regarding `CC(C)C[C@H](NC(=O)[C@@H]1CCCN1C(=O)[C@@H]1CCCN1C(=O)[C@H](CC(C)C)NC(=O)[C@H](C)NC(=O)[C@@H]1CCCN1C(=O)[C@@H]1CCCN1C(=O)[C@@H]1CCCN1)C(=O)N[C@@H](CCCCN)C(=O)N[C@@H](CCCNC(=N)N)C(=O)O` (H-PPPALPPLKR-OH), the Kd on v-Crk turned out to be 437 ± 6 µM; at c-CrkSH3(1) (gst-c-CrkSH3(1) Kd (μM), Table 3), 379 ± 1 µM.

`CC(C)C[C@H](NC(=O)[C@@H]1CCCN1C(=O)[C@@H]1CCCN1C(=O)[C@@H]1CCCN1C(=O)[C@@H]1CCCN1)C(=O)N1CCC[C@H]1C(=O)N1CCC[C@H]1C(=O)N[C@@H](CCCCN)C(=O)N[C@@H](CCCCN)C(=O)N[C@@H](CCCNC(=N)N)C(=O)O` [C3Gmut(1)] (H-PPPPLPPKKR-OH) gave a Kd on Grb2 SH3 domain of 203 ± 3 µM.

Regarding `CC(C)C[C@H](NC(=O)[C@H](C)NC(=O)[C@@H]1CCCN1C(=O)[C@@H]1CCCN1C(=O)[C@@H]1CCCN1)C(=O)N1CCC[C@H]1C(=O)N1CCC[C@H]1C(=O)N[C@@H](CCCNC(=N)N)C(=O)N[C@@H](CCCCN)C(=O)N[C@@H](CCCNC(=N)N)C(=O)O` [C3Gmut(2)] (H-PPPALPPRKR-OH), the Kd was 11.2 ± 0.5 µM at CRKL, 17.2 ± 0.4 µM on c-CrkSH3(1) (setting [7]) and 23.5 ± 0.8 µM on Grb2 SH3 domain.

As to `CC(C)C[C@H](NC(=O)[C@H](C)NC(=O)[C@@H]1CCCN1C(=O)[C@@H]1CCCN1C(=O)[C@@H]1CCCN1)C(=O)N1CCC[C@H]1C(=O)N1CCC[C@H]1C(=O)N[C@@H](CCCCN)C(=O)N[C@@H](CCCCN)C(=O)N[C@@H](CCCNC(=N)N)C(=O)O` [CB-1 peptide], the Kd on CRKL came to 2.79 ± 0.1 µM; on c-CrkSH3(1) (Kd for the CrkSH3(1) domain), 1.89 ± 0.06 µM; at Grb2 SH3 domain, 142 ± 3 µM.

`CC(C)[C@H](NC(=O)[C@@H]1CCCN1C(=O)[C@@H]1CCCN1C(=O)[C@@H]1CCCN1)C(=O)N1CCC[C@H]1C(=O)N1CCC[C@H]1C(=O)N[C@@H](CCCNC(=N)N)C(=O)N[C@@H](CCCNC(=N)N)C(=O)N[C@@H](CCCNC(=N)N)C(=O)N[C@@H](CCCNC(=N)N)C(=O)O` [SOS-1, reference compound]: the values for the Kd at CRKL, at c-CrkSH3(1) (setting [7]) and at Grb2 SH3 domain were 10.5 ± 0.8 µM, 5.24 ± 0.16 µM and 3.54 ± 0.16 µM, respectively.

As to `CC[C@H](C)[C@H](NC(=O)[C@H](C)NC(=O)[C@@H]1CCCN1C(=O)[C@@H]1CCCN1)C(=O)N1CCC[C@H]1C(=O)N1CCC[C@H]1C(=O)N[C@@H](CCCNC(=N)N)C(=O)N[C@@H](CCC(N)=O)C(=O)N1CCC[C@H]1C(=O)N[C@H](C(=O)O)[C@@H](C)O` [SOS-2] (H-PPAIPPRQPT-OH), the Kd at Grb2 SH3 domain (setting [8]) is 42 ± 4 µM.

As for `CC(C)C[C@H](NC(=O)[C@@H]1CCCN1C(=O)[C@@H]1CCCN1)C(=O)N[C@@H](CC(C)C)C(=O)N1CCC[C@H]1C(=O)N1CCC[C@H]1C(=O)N[C@@H](CCCNC(=N)N)C(=O)N[C@@H](CCC(=O)O)C(=O)N1CCC[C@H]1C(=O)N[C@H](C(=O)O)C(C)C` [SOS-3, reference compound] (H-PPLLPPREPV-OH), the Kd on c-CrkSH3(1) (setting [7]) was found to be 206 ± 9 µM; on Grb2 SH3 domain it was 88 ± 3 µM.

`CC(C)[C@H](NC(=O)[C@@H]1CCCN1C(=O)[C@@H]1CCCN1C(=O)CN)C(=O)N1CCC[C@H]1C(=O)N1CCC[C@H]1C(=O)N[C@@H](CCCNC(=N)N)C(=O)N[C@@H](CCC(N)=O)C(=O)N[C@@H](CO)C(=O)N[C@H](C(=O)O)[C@@H](C)O` [SOS-4, reference compound] (H-GPPVPPRQST-OH): the Kd on c-CrkSH3(1) (Table 2, gst-CrkSH3(1), 18° C, read-out: c-CrkSH3(1) Kd) amounted to 663 ± 3 µM; on Grb2 SH3 domain (setting [8]), 94 ± 5 µM.

Take “gst-CB-1: gst-fusion protein containing only the single proline-rich sequence CB-1 of C3G (SPPPALPPKKRQ; also: fused to GST)”: the Kd on gst-CrkSH3SH3 was 0.0104 µM.

“gst-CB-2: gst-fusion protein containing only the single proline-rich sequence CB-2 of C3G (DTPPALPEKKRR; also: fused to GST)”: the Kd at gst-CrkSH3SH3 was found to be 0.027 µM.

Regarding “gst-CB-3: gst-fusion protein containing only the single proline-rich sequence CB-3 of C3G (EKPPPLPEKKNK; also: fused to GST)”, the Kd at gst-CrkSH3SH3 was found to be 0.0113 µM.

On to “gst-CB-4: gst-fusion protein containing only the single proline-rich sequence CB-4 of C3G (APPPALPPKQRQ; also: fused to GST)”, for which the Kd at gst-CrkSH3SH3 is 0.00285 µM.

Turning to PPPALPPAKR [Lys-10Ala mutant peptide (PPPALPPAKR)], in [1], the “fold decrease of binding against the wild type CB-1 peptide” value stood at 10 fold, the “fold increase of Kd against the wild type CB-1 peptide” value was 11.7 fold and the “fold reduction of binding affinity against the wild type CB-1 peptide” value turned out to be 11.6 fold. In assay [2], this molecule returned a Kd of 22.1 µM.

With TPPALPEKKR [CB-2 peptide], the binding result in assay [3] was “binds”.

For the molecule PPPPLPPKKR [C3Gmut(1) peptide (PPPPLPPKKR)], the Kd in [4] was found to be 1.45 µM.

PPAIPPRQPT [SOS-2 peptide (PPAIPPRQPT)] showed a Kd in [4] of 127 µM.

Consider PPPALPPKKK [peptide PPPALPPKKK], for which the Kd in [2] worked out at 5 µM; with gst-v-Crk, 36.2 µM.

In the assay with gst-v-Crk, PPPVPPRRRR [SOS-1 peptide (PPPVPPRRRR)] had a Kd of 23.7 µM.

For the molecule PPPALPPKKA [peptide PPPALPPKKA], the Kd was found to be 9.3 µM in assay [2] and 71.8 µM with gst-v-Crk.

On to PPPALPPRKR [C3Gmut(2) peptide (PPPALPPRKR)], for which, in assay [1], the “fold decrease of binding against the wild type CB-1 peptide” value is 10 fold and the “fold increase of Kd against the wild type CB-1 peptide” value is ~9 fold. The molecule further registered a Kd with gst-v-Crk of 23.5 µM.

In assay [2], PPPALPPKAR [peptide PPPALPPKAR] showed a Kd of 5.74 µM.

As for NSPPPALPPKKR (other, not fully specified) [gst-1-12 (GST-NSPPPALPPKKR)], in assay [5], the binding result was “binds”.

As for KPPPLPEKKQ [CB-3 peptide], the binding result in assay [3] is on record as “binds”.

In the case of PPPALPPKKR [CB-1 peptide (PPPALPPKKR)], the Kd was ~2 µM in assay [6] and 25.5 µM with gst-v-Crk.

In the case of PPPALPPKK (other) [gst-3-11 (CB-1 gst-fusion peptide without the C-terminal Arg-12)], the binding result in assay [5] is listed as “no binding”.

As for PPPALPPKQR [CB-4 peptide], the binding result in [3] is reported as “binds”.
